Test results: PubChem BioAssay (NCI)
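All cell lines were grown in 96-well plates and treated with compound for 48 hours. GI50 marks 50% less growth. TGI: total growth inhibition.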

Experiments:
Experiment in all cases: NCI-60 cell line screen, 48 h
SK-MEL-5 melanoma = system: SK-MEL-5 melanoma
HOP-92 NSCLC = system: HOP-92 NSCLC
CAKI-1 renal = system: CAKI-1 renal
HOP-62 NSCLC = system: HOP-62 NSCLC
OVCAR-5 ovarian = system: OVCAR-5 ovarian
786-0 renal = system: 786-0 renal
EKVX NSCLC = system: EKVX NSCLC
CCRF-CEM leukemia = system: CCRF-CEM leukemia
IGROV1 ovarian = system: IGROV1 ovarian
T-47D breast = system: T-47D breast

Structure (SMILES) | TGI (SK-MEL-5 melanoma) [µM] | TGI (HOP-92 NSCLC) [µM] | TGI (CAKI-1 renal) [µM] | TGI (HOP-62 NSCLC) [µM] | TGI (OVCAR-5 ovarian) [µM] | TGI (786-0 renal) [µM] | TGI (EKVX NSCLC) [µM] | TGI (CCRF-CEM leukemia) [µM] | TGI (IGROV1 ovarian) [µM] | TGI (T-47D breast) [µM] | GI50 (SK-MEL-5 melanoma) [µM] | GI50 (HOP-62 NSCLC) [µM] | GI50 (OVCAR-5 ovarian) [µM] | GI50 (T-47D breast) [µM] | GI50 (786-0 renal) [µM] | GI50 (EKVX NSCLC) [µM] | GI50 (IGROV1 ovarian) [µM] | GI50 (CAKI-1 renal) [µM] | GI50 (CCRF-CEM leukemia) [µM] | GI50 (HOP-92 NSCLC) [µM]
O=C(CCN(C(=O)O)S(=O)(=O)c1ccc(NC(=O)c2ccccc2)cc1)Nc1ccccc1 | > 100 | > 100 | > 100 | > 100 | > 100 | > 100 | > 100 | > 81.2 | > 100 | – | – | – | – | – | – | – | – | – | – | –
O=[N+]([O-])c1cccc(C2=NN(c3ccccc3)C[N+](c3ccc(Br)cc3)=N2)c1 | > 100 | > 100 | > 100 | > 100 | > 100 | > 100 | > 100 | – | > 100 | – | – | – | – | – | – | – | – | – | – | –
CCCCCCCCCCCCCC(=O)OCC(C[As](=O)(O)O)OC(=O)CCCCCCCCCCCCC (stereo unspecified) | > 100 | > 100 | > 100 | > 100 | – | > 100 | > 100 | > 100 | > 100 | – | – | – | – | – | – | – | – | – | – | –
COC(=O)C1c2cc3c(cc2C(OC2OC(C)C(OC)C(C)(OC)C2OC)CC1(C)O)C(=O)c1c(O)cc2c(c1C3=O)OC1OC2(C)C(O)C([N+](C)(C)[O-])C1O (stereo unspecified) | 0.352 | – | > 28.3 | > 100 | > 43.6 | > 40.5 | 4.59 | 0.921 | 4.22 | 0.847 | – | – | – | – | – | – | – | – | – | –
CC(C)CCC1CC2C(=O)N(c3ccccc3)C(=O)C2c2[nH]c3ccccc3c21 (stereo unspecified) | 13 | – | – | – | 31.4 | 15.9 | 11.6 | 16.8 | 28.4 | – | – | – | – | – | – | – | – | – | – | –
[N-]=[N+]=NC1(Cc2ccccc2)C(=O)c2cccc3c2N(CCC3)C1=O (stereo unspecified) | > 100 | > 100 | > 100 | > 100 | > 100 | > 100 | – | > 100 | > 100 | – | – | – | – | – | – | – | – | – | – | –
Nc1ccc([N+](=O)[O-])cc1N=C/C=C/c1ccccc1 | 48.8 | – | – | > 100 | > 100 | > 100 | > 100 | – | 42.7 | 77.7 | 10.7 | 42.5 | 81.2 | 15.7 | 23.3 | 19.1 | 7.48 | – | – | –
O=C1CCC2(c3ccc(Cl)cc3)Nc3ncccc3N12 (stereo unspecified) | > 100 | > 100 | > 100 | > 100 | > 100 | > 100 | > 100 | > 100 | > 100 | – | – | – | – | – | – | – | – | – | – | –
C#CCOc1cccc(-c2ncc3cc(NC(=O)CCl)ccc3n2)c1 | 2.62 | – | 3.31 | 3.81 | – | 3.59 | – | 0.994 | 4.01 | – | 1.33 | 2.02 | – | – | 2.01 | – | 1.8 | 1.88 | 0.252 | –
N#CN/C(N)=N/CO | > 100 | > 100 | > 100 | > 100 | > 100 | > 62.1 | > 100 | > 100 | > 100 | – | – | – | – | – | – | – | – | – | – | –
CC1(C)COC(C2(C)C(=O)C=C(c3ccccc3)c3ccccc32)=N1 (stereo unspecified) | > 100 | > 100 | > 100 | > 100 | – | > 100 | > 100 | > 100 | > 100 | – | – | – | – | – | – | – | – | – | – | –
O=C1CCC(Cl)=CC2CCCN12 (stereo unspecified) | > 100 | > 100 | > 100 | > 100 | > 100 | > 100 | > 100 | – | > 100 | – | – | – | – | – | – | – | – | – | – | –
O=C(Nc1ccn(CCO)c(=O)n1)c1ccccc1 | > 100 | > 100 | > 100 | > 100 | > 100 | > 100 | > 100 | > 100 | > 100 | – | – | – | – | – | – | – | – | – | – | –
CNCc1ccccc1-c1csc([C@@H](C)Nc2nc(C)nc3cc(OC)c(OC)cc23)c1 | 3.09 | – | 2.55 | 12.3 | 13.6 | 2.87 | 12.9 | 5.3 | 5.23 | 4.1 | 1.72 | 1.43 | 3.29 | 1.85 | 1.52 | 1.61 | 1.4 | 1.28 | 2.26 | –
N.N.N.N.O=C([O-])CCl.O=C([O-])CCl.[Co+3].[O-][Cl+3]([O-])([O-])[O-] | > 100 | > 100 | – | > 100 | > 100 | > 100 | > 100 | > 100 | > 100 | – | > 100 | > 100 | > 100 | – | > 100 | > 100 | > 100 | – | > 100 | 86.5
